We go through one compound from patent publication US20060281813A1, “Methods of treating hyperproliferative cell disorders” (priority 2003, published 2006).

Substitutions are numbered along the chain they refer to. A value given as a limit tells only on which side of the number the result lay.

The subject of one data set is ER+ or ER− tumor lines. The settings on record: all the ER+ or ER− tumor lines examined; cited from earlier work.
Data set [1] deals with retinoid receptor subtype. To be noted: competition with all-trans RA; cited from earlier work.
Data set [2] deals with non small cell lung cancer. Description: Example 2: patient with non small cell lung cancer. The class given is in vivo, human. The settings on record: 75 mg per day with IRESSA 250 mg per day for two months. On the procedure: A patient suffering from non small cell lung cancer was treated with IRESSA® (250 mg per day) for two months. The disease progressed during the treatment and thae patient was continued on IRESSA® (250 mg per day) with daily dosage of 4-oxo-retinol (75 mg per day) for two months. The disease became stable and the patient continued taking IRESSA® (250 mg per day) for 4 more months without 4-oxo-retinol with a stale disease.

The target of the next data set is T1, monomeric mouse RAR b (Mus musculus, UniProt P22605).
T1 sequence (P22605 1-482): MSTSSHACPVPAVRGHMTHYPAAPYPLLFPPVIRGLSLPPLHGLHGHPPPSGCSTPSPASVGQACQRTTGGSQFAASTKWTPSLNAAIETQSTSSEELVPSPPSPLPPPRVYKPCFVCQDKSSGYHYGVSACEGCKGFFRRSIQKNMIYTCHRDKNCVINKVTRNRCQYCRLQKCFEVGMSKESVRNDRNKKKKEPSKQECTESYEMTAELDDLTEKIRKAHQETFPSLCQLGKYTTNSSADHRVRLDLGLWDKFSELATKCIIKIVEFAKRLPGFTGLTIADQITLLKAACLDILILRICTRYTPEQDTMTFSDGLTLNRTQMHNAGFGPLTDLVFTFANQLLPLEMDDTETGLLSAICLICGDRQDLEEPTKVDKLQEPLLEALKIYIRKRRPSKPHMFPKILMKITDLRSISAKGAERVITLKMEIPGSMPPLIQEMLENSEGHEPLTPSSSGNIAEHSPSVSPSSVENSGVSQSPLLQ
To be noted: read-out: IC50, ability to displace all-trans RA; cited from earlier work.

The target of a further data set is T2, RARγ (Mus musculus, UniProt P18911).
T2 sequence (P18911 1-458): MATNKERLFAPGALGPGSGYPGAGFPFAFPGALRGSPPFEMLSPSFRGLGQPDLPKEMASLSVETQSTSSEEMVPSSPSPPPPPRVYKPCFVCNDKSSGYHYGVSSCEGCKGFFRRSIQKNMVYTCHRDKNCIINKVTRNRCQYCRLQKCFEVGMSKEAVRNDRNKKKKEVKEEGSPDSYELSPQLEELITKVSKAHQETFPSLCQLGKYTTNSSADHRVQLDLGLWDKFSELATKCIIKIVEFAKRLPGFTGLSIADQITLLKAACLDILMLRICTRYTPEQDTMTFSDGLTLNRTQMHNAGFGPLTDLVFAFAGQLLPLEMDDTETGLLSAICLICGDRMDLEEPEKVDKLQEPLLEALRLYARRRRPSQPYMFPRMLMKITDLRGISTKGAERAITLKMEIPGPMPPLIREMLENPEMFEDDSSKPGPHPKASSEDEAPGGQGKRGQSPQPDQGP
The settings on record: read-out: IC50, ability to displace all-trans RA; cited from earlier work.

In data set [3] the test system is lung cancer. The experiment in a line: Example 7: lung cancer patients with disease progression on IRESSA alone. In kind it is in vivo, human. To be noted: added to IRESSA, oral 100 mg/square meter, optionally calcitriol 0.1-1 mcg per day.
For another data set, the target named is T3, monomeric mouse RARa (Mus musculus, UniProt P11416).
T3 sequence (P11416 1-462): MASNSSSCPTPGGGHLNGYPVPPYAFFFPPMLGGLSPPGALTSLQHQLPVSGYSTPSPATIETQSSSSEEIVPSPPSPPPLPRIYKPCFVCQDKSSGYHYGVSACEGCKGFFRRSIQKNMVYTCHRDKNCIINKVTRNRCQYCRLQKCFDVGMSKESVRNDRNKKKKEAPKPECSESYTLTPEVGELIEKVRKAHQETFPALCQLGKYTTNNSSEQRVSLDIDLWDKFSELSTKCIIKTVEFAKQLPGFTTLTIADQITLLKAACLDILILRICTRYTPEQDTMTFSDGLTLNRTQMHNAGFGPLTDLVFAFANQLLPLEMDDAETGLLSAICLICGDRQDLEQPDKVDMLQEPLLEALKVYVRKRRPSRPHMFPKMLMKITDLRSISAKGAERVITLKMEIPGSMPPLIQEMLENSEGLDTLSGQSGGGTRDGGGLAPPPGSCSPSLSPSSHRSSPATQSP
To be noted: read-out: IC50, ability to displace all-trans RA; cited from earlier work.

Another data set relates to F9 cells. To be noted: similar to all-trans RA; cited from earlier work.
The test system of data set [4] is lung cancer. The experiment in a line: Example 6: patients with lung cancer. In kind it is in vivo, human. To be noted: oral 100 mg/square meter with oral IRESSA.
The test system of data set [5] is F9 embryonal mouse teratocarcinoma cells. To be noted: in F9 cells; cited from earlier work.
Data set [6] has as its system breast cancer, prostate cancer or leukemia. The experiment in a line: Example 4: patients with breast cancer, prostate cancer or leukemia. In kind it is in vivo, human. To be noted: oral 100 mg/square meter with oral IRESSA.
In another data set the target is T4, human RARα (Homo sapiens, UniProt P10276).
T4 sequence (P10276 1-462): T3 sequence (P11416 1-462) with S43T, D150E, A169V, K347R, S427P, T431G, H453N, Q460H
The settings on record: cited from earlier work.

Data set [7] deals with advanced head and neck cancer. The experiment in a line: Example 5: patients with advanced head and neck cancer. The class given is in vivo, human. To be noted: oral 100 mg/square meter with oral IRESSA or intravenous C-225. The text has this: Current systemic chemotherapy regimens are unable to prolong survival of patients with advanced head and neck cancer.
A further data set relates to Xenopus laevis. To be noted: Xenopus laevis system; cited from earlier work.

On to `CC(C=CC1=C(C)C(=O)CCC1(C)C)=CC=CC(C)=CCO` [4-oxo-retinol], for which the growth inhibition entry in the data set with ER+ or ER− tumor lines is reported as “growth inhibitory”. The “displacement of all-trans RA” value in data set [1] is “Neither compound efficiently displaced all-trans RA”. Moreover, the disease course entry in [2] is “stable”. Also, the IC50 is 420 nM at monomeric mouse RAR b, 3200 nM on RARγ and 330 nM at monomeric mouse RARa. The tumor burden result with lung cancer [3] was “reduced tumor burden”. Besides, in the data set on F9 cells, the “differentiation of F9 cells” value is listed as “induces differentiation”. The “tumor burden versus IRESSA alone” value (in the data set on lung cancer [4]; in data set [6]) was “reduced tumor burden” each time. Moreover, the half-life in data set [5] was over 15 h. The RARα-mediated transactivation entry at human RARα was “potently induced transactivation”. Further, the “survival rate versus IRESSA or C-225 alone” value in data set [7] was “better survival rate”. Further, the “ED50, teratogenicity” value with Xenopus laevis was 300 to 400 nM.

As usually defined, the IC50 is the concentration that gives 50% inhibition. Usually half-life stands for how long it takes for the measured level to halve.
